# From ChEMBL document CHEMBL5365490, “Enhanced tumor specific drug release by hypoxia sensitive dual-prodrugs based on 2-nitroimidazole” (Bioorg Med Chem Lett, 2023)
# Activity calls are given as the source filed them. The rule behind the calls is not given here.
# Key:
# [1] = Chemical stability of compound in PBS at pH 7.4 assessed as remaining parent compound after 1 hrs of incubation by LC/MS analysis; assay type: physicochemical; conditions: buffer, pH 7.4, 1 h
# [2] = Stability of compound in human MIA Paca-2 cells homogenates assessed as drug degradation incubated for 6 hrs by LC/MS analysis; assay type: ADME, cell-based; conditions: MIA PaCa-2 cell homogenates, read-out: Drug degradation
# [3] = Drug metabolism in human MIA PaCa-2 cells homogenates assessed as gemcitabine formation incubated for 24 hrs by LC/MS analysis; assay type: ADME, cell-based; conditions: mia paca-2, 24 h
# [4] = Drug metabolism in human MIA PaCa-2 cells homogenates assessed as (S)-2-(2,3-dichloro-4H-thieno[3,2-b]pyrrole-5-carboxamido)-3-(2-nitro-1H-imidazol-1-yl)propanoic acid formation incubated for 24 hrs by LC/MS analysis; assay type: ADME, cell-based; conditions: mia paca-2, 24 h
# [5] = Half life in PBS buffer at pH 7.4 measured upto 72 hrs by LC/MS analysis; assay type: physicochemical
# [6] = Chemical stability of compound in PBS at pH 7.4 assessed as remaining parent compound incubated for 6 hrs by LC/MS analysis; assay type: physicochemical; conditions: buffer, pH 7.4, 6 h
# [7] = Stability of compound in human MIA Paca-2 cells homogenates assessed as remaining parent compound incubated for 6 hrs by LC/MS analysis; assay type: ADME, cell-based; conditions: mia paca-2, 6 h
# [8] = Chemical stability of compound in PBS at pH 7.4 assessed as remaining parent compound incubated for 24 hrs by LC/MS analysis; assay type: physicochemical; conditions: buffer, pH 7.4, 24 h
# [9] = Stability of compound in human MIA Paca-2 cells homogenates assessed as remaining parent compound incubated for 24 hrs by LC/MS analysis; assay type: ADME, cell-based; conditions: mia paca-2, 24 h
# [10] = system: MIA PaCa-2; assay: Antiproliferative activity against human MIA-PaCa-2 cells assessed as reduction in cell viability > 1 uM measured for 72 hrs under hypoxia condition by MTT assay; assay type: functional, cell-based
# [11] = system: MIA PaCa-2; assay: Antiproliferative activity against human MIA-PaCa-2 cells assessed as reduction in cell viability > 0.1 uM measured for 72 hrs under hypoxia condition by MTT assay; assay type: functional, cell-based
# [12] = system: MIA PaCa-2; assay: Antiproliferative activity against human MIA-PaCa-2 cell assessed as inhibition of cell growth > 0.1 uM measured for 72 hrs under normoxia condition by MTT assay; assay type: functional, cell-based
compound,measurement,setting,value
Nc1ccn([C@@H]2O[C@H](COC(=O)[C@H](Cn3ccnc3[N+](=O)[O-])NC(=O)c3cc4sc(Cl)c(Cl)c4[nH]3)[C@@H](O)C2(F)F)c(=O)n1,Stability,[1],Unstable
same,metabolised at 6 h,[2],> 50%
same,Drug metabolism,[3],Metabolite_Detected
same,Drug metabolism,[4],Metabolite_Detected
Nc1nccn1C[C@@H](NC(=O)c1cc2sc(Cl)c(Cl)c2[nH]1)C(=O)Nc1ccc(COC(=O)Nc2ccn([C@@H]3O[C@H](CO)[C@@H](O)C3(F)F)c(=O)n2)cc1,half-life,[5],40 h
O=C(Nc1ccn([C@@H]2O[C@H](CO)[C@@H](O)C2(F)F)c(=O)n1)OCc1ccc(NC(=O)[C@@H](Cn2ccnc2[N+](=O)[O-])NC(=O)c2cc3sc(Cl)c(Cl)c3[nH]2)cc1,Stability,[6],Stable
same,Stability,[7],Stable
same,Stability,[8],Stable
same,Stability,[9],Stable
same,Activity,[10],Active
Nc1ccn([C@@H]2O[C@H](CO)[C@@H](O)C2(F)F)c(=O)n1,Activity,[11],Active
same,Activity,[12],Active
